The values that follow come from patent US20040122013A1, “Analogs of nocicettin” (priority 2002, published 2004).

Assay [1] deals with mice. The assay is described as follows: Mouse tail withdrawal assay (pronociception). The format is in vivo.
Assay [2] relates to guinea pig ileum. The assay is described as follows: Electrically induced twitch inhibition, guinea pig ileum (gpI).
Assay [3] relates to mouse vas deferens. Nature of the assay: Electrically induced twitch inhibition, mouse vas deferens (mVD).
The test system of assay [4] is mice. The format is in vivo, mouse.
In assay [5] the target is T1, human recombinant NOP receptor (Homo sapiens, UniProt P41146).
T1 construct: expressed in transfected cells; host or cells: Chinese hamster ovary (CHO) cells
T1 sequence (P41146 whole entry): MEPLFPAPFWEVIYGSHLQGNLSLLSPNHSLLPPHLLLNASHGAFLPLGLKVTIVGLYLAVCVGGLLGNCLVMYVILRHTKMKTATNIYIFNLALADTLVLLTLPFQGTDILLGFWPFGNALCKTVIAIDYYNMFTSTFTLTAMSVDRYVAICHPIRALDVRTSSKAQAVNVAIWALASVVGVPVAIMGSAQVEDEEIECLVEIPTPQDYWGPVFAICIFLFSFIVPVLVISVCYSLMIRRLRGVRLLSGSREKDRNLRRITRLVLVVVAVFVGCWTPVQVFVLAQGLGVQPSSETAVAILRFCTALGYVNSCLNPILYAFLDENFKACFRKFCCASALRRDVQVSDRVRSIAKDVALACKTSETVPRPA
The assay is described as follows: cell-based. Particulars: CHOhNOP, cAMP inhibition.

Assay [6] deals with T1, human recombinant NOP receptor. The assay is described as follows: biochemical. The note with it: CHOhNOP, stimulation of GTPγS binding. (In general: GTPγS resists hydrolysis and so accumulates on activated G proteins.)
Assay [7] concerns N/OFQ-sensitive isolated tissues. Nature of the assay: N/OFQ-sensitive electrically stimulated isolated tissues (mouse and rat vas deferens, guinea pig ileum). The source says: The compounds of the Table have been evaluated in vitro in several N/OFQ-sensitive isolated tissues from various species such as the rat, mouse and guinea pig and in Chinese hamster ovary cells expressing the human recombinant NOP receptor (CHOhNop). The conditions adopted for studying the effects of the compounds in the electrically stimulated tissues (mouse and rat vas deferens, guinea pig ileum) are described in Bigoni et al. (Naunyn Schmiedebergs Arch Pharmacol 359, 160-7, 1999, herein incorporated by reference), whereas the conditions adopted for investigating the effects in CHOhNop cells are disclosed in Okawa et al. (Br J Pharmacol 127, 123-130, 1999, herein incorporated by reference).

Assay [8] addresses T2, recombinant human NOP receptors expressed in HEK293 cells (Homo sapiens, UniProt P41146).
T2 construct: host or cells: HEK293 cells
The note with it: Okada et al. 2000; cited from earlier work.

Assay [9] deals with NOP receptor. Nature of the assay: Antagonism of agonist effects by naloxone and [Nphe1]N/OFQ(1-13)NH2. Particulars: tested vs the novel agonist compounds or vs N/OFQ. On the procedure: In isolated tissues the compounds having structure [Phe^1Ψ(CO—NH)Gly^2] mimicked the effects of N/OFQ inducing similar maximal effects, thus acting as full agonists, while those with the structure [Phe^1Ψ(CH2—NH)Gly^2] behaved as partial agonists producing lower maximal effects than N/OFQ. […] Some of the compounds evaluated in vitro were also tested in a battery of in vivo assays of biological functions regulated by N/OFQ. In all the assays most of the analogs mimicked the effects evoked by the natural peptide. In the locomotor activity assay some compounds have been tested at 1 nmol i.c.v. dose. These mimicked the inhibitory effect of N/OFQ, however while the effects of the natural peptide lasted for about 20 min, those induced by some of the novel derivatives were still evident after several hours. […] Similar results were also obtained in the mouse tail withdrawal assay were the compounds mimicked the hyperalgesic actions of N/OFQ.

The mark [10] stands for this setting: locomotor activity depression, i.c.v., mice.

Where two headings read alike, the source gives them in different places.

T2 sequence (P41146 whole entry): as above

`CC(C)C[C@H](NC(=O)[C@H](CCCCN)NC(=O)[C@H](CCCNC(=N)N)NC(=O)[C@H](C)NC(=O)[C@H](CO)NC(=O)[C@H](CCCCN)NC(=O)[C@H](CCCNC(=N)N)NC(=O)[C@H](C)NC(=O)CNC(=O)[C@@H](NC(=O)[C@H](Cc1ccccc1)NC(=O)CNC(=O)CNC(=O)[C@@H](N)Cc1ccccc1)[C@@H](C)O)C(=O)N[C@@H](C)C(=O)N[C@@H](CC(N)=O)C(=O)N[C@@H](CCC(N)=O)C(=O)O` [N/OFQ, reference compound] gave a Duration of action in [1] of 15 min. The Effective dose in [1] and in assay [4] (setting [10]) was 1 nmol in each case. The Emax in assay [2] is recorded as 56 ± 5%; in assay [3] it was 91 ± 2%. The pEC50 in [2] amounted to 8.04; in assay [3], 7.77.

Consider `C[C@H](NC(=O)CNC(=O)[C@@H](NC(=O)[C@H](Cc1ccc(F)cc1)NC(=O)CNC(=O)CNC(=O)[C@@H](N)Cc1ccccc1)[C@@H](C)O)C(=O)N[C@@H](CCCNC(=N)N)C(=O)N[C@@H](CCCCN)C(=O)N[C@@H](CO)C(=O)N[C@@H](C)C(=O)N[C@@H](CCCNC(=N)N)C(=O)N[C@@H](CCCCN)C(=O)N[C@@H](CCCNC(=N)N)C(=O)N[C@@H](CCCCN)C(=O)N[C@@H](CC(N)=O)C(=O)N[C@@H](CCC(N)=O)C(N)=O` [UFP-102], for which, in assay [5], the EC50 was 0.0676 nM and the Emax was 104 ± 3%. In assay [1], the Duration of action is >120 min and the Effective dose came to 0.1 nmol. Also, in assay [6], the EC50 was 0.0759 nM and the Emax came to 12.26 ± 1.37. In assay [7], the “Intrinsic activity (full or partial agonist)” value was “full agonist activity” and the “Potency compared with N/OFQ” value is listed as “higher than that of N/OFQ”. In [2], this molecule came in with an Emax of 55 ± 4% and a pEC50 of 8.98. In assay [3], this molecule came in with an Emax of 94 ± 1% and a pEC50 of 9.36. Also, in assay [4] (setting [10]), the Duration of action was >3 h and the Effective dose is 0.1 nmol. Further, the “Potency relative to N/OFQ” value in [4] (mouse, in vivo) is “more than 10 fold”.

Turning to “H-Phe-Ψ(CH2NH)-Gly-Gly-(pF)Phe-Thr-Gly-Ala-Arg-Lys-Ser-Ala-Arg-Lys-Arg-Lys-Asn-Gln-NH2 [b)]”, the “Intrinsic activity (full or partial agonist)” value in assay [7] (isolated tissues, maximal effect compared with N/OFQ) is “partial agonist activity”.

As for [(pI)Phe^4]-N/OFQ-NH2, the “Potency compared with N/OFQ” value in [7] (isolated tissues) is “lower”.

[Arg^14,Lys^15]N/OFQ: the “Potency relative to N/OFQ” value in assay [8] was 17 fold.

As for [Nphe^1]N/OFQ(1-13)NH2, the pA2 in assay [9] was 6.0-6.4.

The pEC50 is the EC50 on a negative log10 scale, so that one unit is a factor of ten. The EC50 is the concentration that produces a half-maximal response.
